In ChEMBL document CHEMBL1138463, “Structure-based design, synthesis, and characterization of inhibitors of human and Plasmodium falciparum dihydroorotate dehydrogenases” (J Med Chem, 2009) one finds IC50 and Ki data, which are given here for 16 compounds.

For assay [1], the target named is Dihydroorotate dehydrogenase (quinone), mitochondrial (Homo sapiens, UniProt Q02127).
Description: Inhibition of ubiquinone binding site of human dihydroorotate dehydrogenase
The target in assay [2] is T1, Dihydroorotate dehydrogenase (Plasmodium falciparum, UniProt Q54A96).
T1 sequence (Q54A96 whole entry): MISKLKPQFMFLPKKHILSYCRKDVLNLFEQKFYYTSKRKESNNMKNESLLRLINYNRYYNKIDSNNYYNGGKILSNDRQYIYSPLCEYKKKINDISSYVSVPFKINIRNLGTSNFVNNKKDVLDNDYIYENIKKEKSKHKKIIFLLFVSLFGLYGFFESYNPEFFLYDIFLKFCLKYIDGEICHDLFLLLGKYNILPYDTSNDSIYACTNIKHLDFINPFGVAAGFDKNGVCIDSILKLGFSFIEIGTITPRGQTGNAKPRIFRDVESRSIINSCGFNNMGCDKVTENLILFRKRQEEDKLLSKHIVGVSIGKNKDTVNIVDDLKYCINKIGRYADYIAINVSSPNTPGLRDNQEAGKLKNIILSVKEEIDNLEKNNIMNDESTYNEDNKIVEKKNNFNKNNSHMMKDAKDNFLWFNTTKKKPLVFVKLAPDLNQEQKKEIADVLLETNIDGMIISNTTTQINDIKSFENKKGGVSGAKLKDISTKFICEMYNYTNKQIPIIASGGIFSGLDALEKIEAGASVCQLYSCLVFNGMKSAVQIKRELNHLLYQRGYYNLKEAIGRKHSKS
Description: Inhibition of ubiquinone binding site of Plasmodium falciparum dihydroorotate dehydrogenase

Chain of Dihydroorotate dehydrogenase (quinone), mitochondrial (Q02127 whole entry): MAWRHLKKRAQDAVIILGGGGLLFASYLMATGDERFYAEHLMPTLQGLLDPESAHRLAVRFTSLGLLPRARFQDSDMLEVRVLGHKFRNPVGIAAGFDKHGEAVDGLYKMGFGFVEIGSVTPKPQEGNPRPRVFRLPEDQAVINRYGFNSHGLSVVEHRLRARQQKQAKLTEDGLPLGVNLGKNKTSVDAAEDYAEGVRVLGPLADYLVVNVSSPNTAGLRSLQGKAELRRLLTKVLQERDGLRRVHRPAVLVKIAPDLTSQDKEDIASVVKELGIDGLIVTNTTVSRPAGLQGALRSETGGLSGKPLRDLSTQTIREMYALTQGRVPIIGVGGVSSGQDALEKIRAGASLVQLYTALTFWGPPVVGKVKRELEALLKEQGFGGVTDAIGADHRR

On to `N#C/C(C(=O)Nc1ccc(C(F)(F)F)cc1)=C(/O)C1CC1`, for which, in assay [1], the midpoint of inhibition, the IC50, lay at 0.117 µM and the inhibition constant Ki (in general, a measure of affinity in units of concentration, obtained from inhibition or displacement) turned out to be 0.014 µM. In assay [2], the IC50 (as a rule, the concentration that gives 50% inhibition) was found to be 92.5 µM and the Ki was 11 µM.
In assay [1], `N#C/C(C(=O)Nc1ccc(-c2ccccc2)cc1)=C(/O)C1CC1` returned an IC50 of 0.053 µM and an inhibition constant Ki of 0.007 µM.
Consider `COc1ccccc1-c1ccc(NC(=O)/C(C#N)=C(/C)O)c(Cl)c1`, for which, in assay [1], 0.2 µM corresponded to half-maximal inhibition (IC50) and the inhibition constant Ki turned out to be 0.025 µM. In assay [2], this compound had an IC50 of 8.6 µM and a Ki of 1 µM.
`C/C(O)=C(\C#N)C(=O)Nc1ccc(-c2ccccc2Cl)cc1Cl`: in assay [1], inhibition was half-maximal at 0.18 µM (IC50) and affinity was put at a Ki of 0.022 µM. In assay [2], half-maximal inhibition (IC50) was put at 4 µM and the Ki worked out at 0.48 µM.
In assay [1], `C/C(O)=C(\C#N)C(=O)Nc1ccc(-c2ccccc2)cc1Cl` had an IC50 of 0.32 µM and an inhibitory constant (Ki) of 0.039 µM. For the same compound, in assay [2], the half-maximal inhibitory concentration (IC50) amounted to 51.1 µM and the affinity corresponds to a Ki of 6 µM.
Turning to `CCOc1cccc(-c2ccc(NC(=O)/C(C#N)=C(/C)O)cc2)c1`, the values for the IC50 in assay [1] and in assay [2] were 0.13 µM and 182 µM, respectively. In addition, the Ki in assay [1] was 0.016 µM; in assay [2], 21.5 µM.
In assay [1], `C/C(O)=C(\C#N)C(=O)Nc1ccc(-c2ccccc2Cl)cc1` had an IC50 of 0.13 µM and a Ki of 0.016 µM. Also, in assay [2], the IC50 was found to be 47.4 µM and the inhibition constant (Ki) was determined as 5.6 µM.
Consider `C/C(O)=C(\C#N)C(=O)Nc1ccc(-c2c(Cl)cccc2Cl)cc1Cl`, for which, in assay [1], the midpoint of inhibition, the IC50, lay at 16.5 µM and the affinity corresponds to a Ki of 2 µM. Moreover, in assay [2], the IC50 came to 10.2 µM and the affinity corresponds to a Ki of 1.2 µM.
The corresponding values for `C/C(O)=C(\C#N)C(=O)Nc1ccc(-c2cccc(Cl)c2)cc1Cl` are 1.52 µM, 0.19 µM, 49.1 µM and 5.8 µM.
The corresponding values for `C/C(O)=C(\C#N)C(=O)Nc1ccc(-c2cccc(Cl)c2)cc1C(F)(F)F` are 86.6 µM, 10.7 µM, 57.2 µM and 6.8 µM.
The corresponding values for `C/C(O)=C(\C#N)C(=O)Nc1ccc(-c2ccccc2Cl)c(Cl)c1` are 0.022 µM, 0.0027 µM, 165 µM and 20.5 µM.
Regarding `C/C(O)=C(\C#N)C(=O)Nc1ccc(-c2cccc(Cl)c2Cl)cc1`, the values for the IC50 in assay [1] and in assay [2] were 0.2 µM and 27.2 µM, respectively. In addition, the Ki in assay [1] came to 0.025 µM; in assay [2] it was 3.2 µM.
The corresponding values for `C/C(O)=C(\C#N)C(=O)Nc1ccc(-c2ccccc2)cc1` are 0.09 µM, 25.7 µM, 0.011 µM and 3 µM.
`C/C(O)=C(\C#N)C(=O)Nc1ccc(-c2cccc(Cl)c2)c(Cl)c1`: in assay [1], the IC50 was found to be 0.19 µM and the Ki is 0.023 µM. Further, in assay [2], the half-inhibitory concentration (IC50) was found to be 237 µM and the affinity corresponds to a Ki of 28 µM.
As to `C/C(O)=C(\C#N)C(=O)Nc1ccc(-c2ccccc2Cl)cc1C(F)(F)F`, in assay [1], inhibition was half-maximal at 0.17 µM (IC50) and affinity was put at a Ki of 0.021 µM. Further, in assay [2], the IC50 was 6.2 µM and the affinity corresponds to a Ki of 0.73 µM.
In assay [1], `C/C(O)=C(\C#N)C(=O)Nc1ccc(-c2cccc(Cl)c2Cl)cc1Cl` gave an IC50 of 0.33 µM and a Ki of 0.04 µM. Besides, in assay [2], 9.9 µM corresponded to half-maximal inhibition (IC50) and the inhibition constant Ki was 1.2 µM.
